Reference: patent US9340590B2 (priority 2011, dated 2016)
Like-named read-outs stand apart in the source and are kept apart here. Positions of bridges follow the written chain, without caps; N, C: chain ends. Residues, ends and D or L forms follow the SMILES beside them.

Tests used:
Experiment in all cases: cell-based
hNav1.3 = hNav1.3 (Homo sapiens, UniProt Q9NY46); conditions: IonWorks Quattro, read-out: IWQ Use Nav1.3
hNav1.5 = hNav1.5 (Homo sapiens, UniProt Q14524)
hNav1.7 = hNav1.7 (Homo sapiens, UniProt Q15858); format: cell-based
[1] = Table 23, IonWorks Quattro, use, […], read-out: IWQ Use Nav1.5
[2] = IonWorks Quattro, Use, read-out: IWQ Use Nav1.5

Sequence of hNav1.5 (Q14524 whole entry, looked up): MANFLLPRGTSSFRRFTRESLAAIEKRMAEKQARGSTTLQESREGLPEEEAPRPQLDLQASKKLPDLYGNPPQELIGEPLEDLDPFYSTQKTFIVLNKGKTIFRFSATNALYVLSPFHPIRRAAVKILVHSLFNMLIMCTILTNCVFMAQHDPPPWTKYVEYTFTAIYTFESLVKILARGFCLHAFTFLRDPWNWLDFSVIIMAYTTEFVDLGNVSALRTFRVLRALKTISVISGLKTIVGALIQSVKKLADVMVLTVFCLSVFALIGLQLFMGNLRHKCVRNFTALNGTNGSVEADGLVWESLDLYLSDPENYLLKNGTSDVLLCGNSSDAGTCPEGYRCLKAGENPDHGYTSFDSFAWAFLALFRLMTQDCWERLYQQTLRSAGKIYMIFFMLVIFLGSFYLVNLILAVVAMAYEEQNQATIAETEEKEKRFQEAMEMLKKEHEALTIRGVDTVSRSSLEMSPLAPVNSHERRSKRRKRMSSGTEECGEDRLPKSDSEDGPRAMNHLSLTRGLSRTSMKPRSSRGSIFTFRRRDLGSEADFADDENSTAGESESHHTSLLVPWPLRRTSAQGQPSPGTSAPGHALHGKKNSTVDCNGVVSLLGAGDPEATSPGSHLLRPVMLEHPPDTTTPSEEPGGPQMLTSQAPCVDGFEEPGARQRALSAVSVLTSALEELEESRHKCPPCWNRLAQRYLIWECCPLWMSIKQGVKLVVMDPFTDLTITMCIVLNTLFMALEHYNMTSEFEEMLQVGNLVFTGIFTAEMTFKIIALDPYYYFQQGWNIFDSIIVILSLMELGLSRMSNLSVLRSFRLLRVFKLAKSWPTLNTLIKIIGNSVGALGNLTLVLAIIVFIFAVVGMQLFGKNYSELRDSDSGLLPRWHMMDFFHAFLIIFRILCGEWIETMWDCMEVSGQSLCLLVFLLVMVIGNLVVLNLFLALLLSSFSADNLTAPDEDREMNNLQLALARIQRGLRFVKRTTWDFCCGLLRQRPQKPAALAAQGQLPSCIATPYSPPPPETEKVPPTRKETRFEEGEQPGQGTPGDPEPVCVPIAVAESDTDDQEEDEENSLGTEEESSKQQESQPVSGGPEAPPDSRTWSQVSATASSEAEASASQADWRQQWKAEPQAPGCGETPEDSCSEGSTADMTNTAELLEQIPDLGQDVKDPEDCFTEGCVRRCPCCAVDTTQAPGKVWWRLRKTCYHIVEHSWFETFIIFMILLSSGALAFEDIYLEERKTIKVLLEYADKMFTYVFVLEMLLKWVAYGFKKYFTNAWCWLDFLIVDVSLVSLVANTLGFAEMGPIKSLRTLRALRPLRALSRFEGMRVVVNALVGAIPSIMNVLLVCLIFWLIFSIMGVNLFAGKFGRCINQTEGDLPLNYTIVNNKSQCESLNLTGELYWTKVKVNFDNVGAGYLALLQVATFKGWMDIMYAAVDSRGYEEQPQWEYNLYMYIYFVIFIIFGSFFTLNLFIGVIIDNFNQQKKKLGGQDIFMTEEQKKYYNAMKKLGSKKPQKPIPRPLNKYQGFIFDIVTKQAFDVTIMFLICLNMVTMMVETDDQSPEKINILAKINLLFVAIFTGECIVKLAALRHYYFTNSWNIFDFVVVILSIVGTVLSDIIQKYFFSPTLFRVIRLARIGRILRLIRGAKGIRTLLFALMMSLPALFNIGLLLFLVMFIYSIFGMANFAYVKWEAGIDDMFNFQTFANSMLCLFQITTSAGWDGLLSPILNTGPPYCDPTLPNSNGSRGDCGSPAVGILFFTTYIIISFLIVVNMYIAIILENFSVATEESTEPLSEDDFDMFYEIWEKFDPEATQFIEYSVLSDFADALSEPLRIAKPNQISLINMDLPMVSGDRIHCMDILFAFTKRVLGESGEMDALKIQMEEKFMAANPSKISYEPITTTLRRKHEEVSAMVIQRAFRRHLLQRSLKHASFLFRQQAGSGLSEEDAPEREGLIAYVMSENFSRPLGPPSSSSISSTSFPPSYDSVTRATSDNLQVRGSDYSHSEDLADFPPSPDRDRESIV
Sequence of hNav1.7 (Q15858 whole entry, looked up): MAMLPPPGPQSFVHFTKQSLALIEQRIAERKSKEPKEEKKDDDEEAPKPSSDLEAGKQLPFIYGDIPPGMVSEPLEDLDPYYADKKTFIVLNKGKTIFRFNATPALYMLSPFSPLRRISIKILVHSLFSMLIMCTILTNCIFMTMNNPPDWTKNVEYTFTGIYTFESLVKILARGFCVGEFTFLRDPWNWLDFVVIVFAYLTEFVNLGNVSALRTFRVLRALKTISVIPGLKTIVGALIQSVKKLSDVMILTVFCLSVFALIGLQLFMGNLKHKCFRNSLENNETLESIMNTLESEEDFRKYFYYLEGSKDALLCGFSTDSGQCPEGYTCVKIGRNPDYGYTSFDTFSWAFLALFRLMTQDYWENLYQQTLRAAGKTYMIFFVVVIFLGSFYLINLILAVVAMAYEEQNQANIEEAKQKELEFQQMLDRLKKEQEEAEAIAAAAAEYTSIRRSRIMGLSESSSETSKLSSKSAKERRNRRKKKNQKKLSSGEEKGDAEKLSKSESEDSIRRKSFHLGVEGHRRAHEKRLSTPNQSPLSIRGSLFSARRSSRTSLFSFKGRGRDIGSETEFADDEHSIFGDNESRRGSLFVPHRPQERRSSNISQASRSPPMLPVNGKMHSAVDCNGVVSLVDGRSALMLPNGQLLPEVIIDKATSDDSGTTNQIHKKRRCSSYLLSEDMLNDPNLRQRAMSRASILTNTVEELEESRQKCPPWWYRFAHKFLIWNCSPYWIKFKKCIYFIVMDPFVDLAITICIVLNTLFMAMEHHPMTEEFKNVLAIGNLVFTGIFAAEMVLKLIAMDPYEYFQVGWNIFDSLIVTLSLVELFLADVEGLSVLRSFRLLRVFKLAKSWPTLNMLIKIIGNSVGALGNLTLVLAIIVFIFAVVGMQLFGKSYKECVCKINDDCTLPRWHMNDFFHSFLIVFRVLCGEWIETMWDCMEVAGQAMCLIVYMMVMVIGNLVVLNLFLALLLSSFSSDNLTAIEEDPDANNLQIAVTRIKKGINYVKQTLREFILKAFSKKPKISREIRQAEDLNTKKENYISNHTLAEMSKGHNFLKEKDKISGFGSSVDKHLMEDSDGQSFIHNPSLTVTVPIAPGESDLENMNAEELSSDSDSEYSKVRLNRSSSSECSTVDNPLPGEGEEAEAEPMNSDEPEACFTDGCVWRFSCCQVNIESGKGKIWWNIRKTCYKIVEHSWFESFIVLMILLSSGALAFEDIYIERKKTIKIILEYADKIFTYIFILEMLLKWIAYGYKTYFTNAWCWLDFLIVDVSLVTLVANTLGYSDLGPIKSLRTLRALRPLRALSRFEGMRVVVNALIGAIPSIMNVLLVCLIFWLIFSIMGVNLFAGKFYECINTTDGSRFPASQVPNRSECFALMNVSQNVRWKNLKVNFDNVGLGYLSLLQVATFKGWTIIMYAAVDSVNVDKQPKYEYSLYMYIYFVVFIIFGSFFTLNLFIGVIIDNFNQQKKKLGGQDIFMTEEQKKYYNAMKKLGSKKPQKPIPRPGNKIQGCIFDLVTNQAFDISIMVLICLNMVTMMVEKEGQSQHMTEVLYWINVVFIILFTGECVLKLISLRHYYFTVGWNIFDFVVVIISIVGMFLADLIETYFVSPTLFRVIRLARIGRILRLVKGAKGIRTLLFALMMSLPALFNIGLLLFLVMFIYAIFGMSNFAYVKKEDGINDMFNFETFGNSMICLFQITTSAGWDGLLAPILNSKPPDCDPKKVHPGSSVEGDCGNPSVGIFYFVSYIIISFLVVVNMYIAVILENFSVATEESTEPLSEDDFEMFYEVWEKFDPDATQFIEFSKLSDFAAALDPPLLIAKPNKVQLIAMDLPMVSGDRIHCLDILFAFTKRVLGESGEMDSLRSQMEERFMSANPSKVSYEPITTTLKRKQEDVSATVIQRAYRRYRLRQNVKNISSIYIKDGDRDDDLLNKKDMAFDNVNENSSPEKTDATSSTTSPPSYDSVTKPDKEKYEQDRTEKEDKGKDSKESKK

CC[C@H](C)[C@@H]1NC(=O)[C@@H]2CSSC[C@@H]3NC(=O)[C@H](C(C)C)NC(=O)[C@H](CC(C)C)NC(=O)[C@H](CC(N)=O)NC(=O)[C@@H]4CCCN4C(=O)[C@H](CCCNC(=N)N)NC(=O)[C@H](CSSC[C@H](NC(=O)[C@@H](N)CC(=O)O)C(=O)N[C@@H](CC(C)C)C(=O)NCC(=O)N[C@@H](Cc4ccccc4)C(=O)N[C@@H](CCSC)C(=O)N[C@@H](CCCNC(=N)N)C(=O)N[C@@H](CCCCN)C(=O)N2)NC(=O)[C@H](CSSC[C@@H](C(=O)N[C@@H](CCCCN)C(=O)N[C@@H](Cc2ccc(O)cc2)C(=O)N[C@H](C(=O)N[C@@H](Cc2ccccc2)C(N)=O)C(C)C)NC(=O)[C@H](Cc2c[nH]c4ccccc24)NC(=O)[C@H](CCCCN)NC(=O)[C@H](C)NC(=O)[C@H]([C@@H](C)O)NC(=O)[C@H](CCCNC(=N)N)NC(=O)[C@H](CO)NC3=O)NC(=O)[C@H](CCCCN)NC(=O)[C@H](CC(=O)O)NC(=O)[C@H](CC(N)=O)NC(=O)[C@H](CC(=O)O)NC(=O)[C@@H]2CCCN2C1=O [compound 11] (H-DCLGFMRKCIPDNDKCCRPNLVCSRTAKWCKYVF-NH2; disulfide 2-17, 9-23, 16-30)
IC50 (hNav1.3; Table 23, use, […]): 1150 nM
IC50 (hNav1.5; [1]): 14.7 µM
IC50 (hNav1.7): 950 nM

CC[C@H](C)[C@@H]1NC(=O)[C@@H]2CSSC[C@@H]3NC(=O)[C@H](C(C)C)NC(=O)[C@H](CC(C)C)NC(=O)[C@H](CC(N)=O)NC(=O)[C@@H]4CCCN4C(=O)[C@H](CCCNC(=N)N)NC(=O)[C@H](CSSC[C@H](NC(=O)[C@@H](N)CC(=O)O)C(=O)N[C@@H](CC(C)C)C(=O)NCC(=O)N[C@@H](Cc4ccccc4)C(=O)N[C@@H](CCSC)C(=O)N[C@@H](CCCNC(=N)N)C(=O)N[C@@H](CCCCN)C(=O)N2)NC(=O)[C@H](CSSC[C@@H](C(=O)N[C@@H](CCCCN)C(=O)N[C@@H](Cc2ccc(O)cc2)C(=O)N[C@H](C(=O)N[C@@H](Cc2ccccc2)C(N)=O)C(C)C)NC(=O)[C@H](Cc2c[nH]c4ccccc24)NC(=O)[C@H](C)NC(=O)[C@H](Cc2cnc[nH]2)NC(=O)[C@H]([C@@H](C)O)NC(=O)[C@H](CCCNC(=N)N)NC(=O)[C@H](CO)NC3=O)NC(=O)[C@H](CCCCN)NC(=O)[C@H](CC(=O)O)NC(=O)[C@H](CC(N)=O)NC(=O)[C@H](CC(=O)O)NC(=O)[C@@H]2CCCN2C1=O [compound 12] (H-DCLGFMRKCIPDNDKCCRPNLVCSRTHAWCKYVF-NH2; disulfide 2-17, 9-23, 16-30)
IC50 (hNav1.3; Table 23, use, […]): 660 nM
IC50 (hNav1.5; [1]): 17.3 µM
IC50 (hNav1.7): 360 nM

CC[C@H](C)[C@@H]1NC(=O)[C@@H]2CSSC[C@@H]3NC(=O)[C@H](C(C)C)NC(=O)[C@H](CC(C)C)NC(=O)[C@H](CC(N)=O)NC(=O)[C@@H]4CCCN4C(=O)[C@H](CCCNC(=N)N)NC(=O)[C@H](CSSC[C@H](NC(=O)[C@@H](N)CC(=O)O)C(=O)N[C@@H](CC(C)C)C(=O)NCC(=O)N[C@@H](Cc4ccccc4)C(=O)N[C@@H](CCSC)C(=O)N[C@@H](CCCNC(=N)N)C(=O)N[C@@H](CCCCN)C(=O)N2)NC(=O)[C@H](CSSC[C@@H](C(=O)N[C@@H](C)C(=O)N[C@@H](Cc2ccc(O)cc2)C(=O)N[C@H](C(=O)N[C@@H](Cc2ccccc2)C(N)=O)C(C)C)NC(=O)[C@H](Cc2c[nH]c4ccccc24)NC(=O)[C@H](CCCCN)NC(=O)[C@H](Cc2cnc[nH]2)NC(=O)[C@H]([C@@H](C)O)NC(=O)[C@H](CCCNC(=N)N)NC(=O)[C@H](CO)NC3=O)NC(=O)[C@H](CCCCN)NC(=O)[C@H](CC(=O)O)NC(=O)[C@H](CC(N)=O)NC(=O)[C@H](CC(=O)O)NC(=O)[C@@H]2CCCN2C1=O [compound 13] (H-DCLGFMRKCIPDNDKCCRPNLVCSRTHKWCAYVF-NH2; disulfide 2-17, 9-23, 16-30)
IC50 (hNav1.3; Table 25, use, […]): 7390 nM
IC50 (hNav1.5; IWQ Use Nav1.5 (μM)): 14.5 µM
IC50 (hNav1.7): 7940 nM

CC[C@H](C)[C@@H]1NC(=O)[C@@H]2CSSC[C@@H]3NC(=O)[C@H](C(C)C)NC(=O)[C@H](CC(C)C)NC(=O)[C@H](CC(N)=O)NC(=O)[C@@H]4CCCN4C(=O)[C@H](CCCNC(=N)N)NC(=O)[C@H](CSSC[C@H](NC(=O)[C@@H](N)CC(=O)O)C(=O)N[C@@H](CC(C)C)C(=O)NCC(=O)N[C@@H](Cc4ccccc4)C(=O)N[C@@H](CCSC)C(=O)N[C@@H](CCCNC(=N)N)C(=O)N[C@@H](CCCCN)C(=O)N2)NC(=O)[C@H](CSSC[C@@H](C(=O)N[C@@H](CCCCN)C(=O)N[C@@H](Cc2ccc(O)cc2)C(=O)N[C@@H](C)C(=O)N[C@@H](Cc2ccccc2)C(N)=O)NC(=O)[C@H](Cc2c[nH]c4ccccc24)NC(=O)[C@H](CCCCN)NC(=O)[C@H](Cc2cnc[nH]2)NC(=O)[C@H]([C@@H](C)O)NC(=O)[C@H](CCCNC(=N)N)NC(=O)[C@H](CO)NC3=O)NC(=O)[C@H](CCCCN)NC(=O)[C@H](CC(=O)O)NC(=O)[C@H](CC(N)=O)NC(=O)[C@H](CC(=O)O)NC(=O)[C@@H]2CCCN2C1=O [compound 15] (H-DCLGFMRKCIPDNDKCCRPNLVCSRTHKWCKYAF-NH2; disulfide 2-17, 9-23, 16-30)
IC50 (hNav1.3; Table 26, use, […]): 350 nM
IC50 (hNav1.5; Table 26, IonWorks Quattro, use, […], read-out: IWQ Use Nav1.5): 18.6 µM
IC50 (hNav1.7; Table 26, IonWorks Quattro, use, […], read-out: IWQ Use Nav1.7): 330 nM

CC[C@H](C)[C@@H]1NC(=O)[C@@H]2CSSC[C@@H]3NC(=O)[C@H](C(C)C)NC(=O)[C@H](CC(C)C)NC(=O)[C@H](CC(N)=O)NC(=O)[C@@H]4CCCN4C(=O)[C@H](CCCNC(=N)N)NC(=O)[C@H](CSSC[C@H](NC(=O)[C@@H](N)CC(=O)O)C(=O)N[C@@H](CC(C)C)C(=O)NCC(=O)N[C@@H](Cc4ccccc4)C(=O)N[C@@H](CCSC)C(=O)N[C@@H](CCCNC(=N)N)C(=O)N[C@@H](CCCCN)C(=O)N2)NC(=O)[C@H](CSSC[C@@H](C(=O)N[C@@H](CCCCN)C(=O)N[C@@H](Cc2ccc(O)cc2)C(=O)N[C@H](C(=O)N[C@@H](Cc2ccccc2)C(=O)N[C@@H](C)C(N)=O)C(C)C)NC(=O)[C@H](Cc2c[nH]c4ccccc24)NC(=O)[C@H](CCCCN)NC(=O)[C@H](Cc2c[nH]cn2)NC(=O)[C@H]([C@@H](C)O)NC(=O)[C@H](CCCNC(=N)N)NC(=O)[C@H](CO)NC3=O)NC(=O)[C@H](CCCCN)NC(=O)[C@H](CC(=O)O)NC(=O)[C@H](CC(N)=O)NC(=O)[C@H](CC(=O)O)NC(=O)[C@@H]2CCCN2C1=O [compound 16]
IC50 (hNav1.3; use-dependent, […]): 260 nM
IC50 (hNav1.5; IonWorks Quattro, use-dependent, […], read-out: IWQ Use Nav1.5): 14.2 µM
IC50 (hNav1.7; IonWorks Quattro, use-dependent, […], read-out: IWQ Use Nav1.7 (μm)): 410 nM

CC[C@H](C)[C@@H]1NC(=O)[C@@H]2CSSC[C@@H]3NC(=O)[C@H](C(C)C)NC(=O)[C@H](CC(C)C)NC(=O)[C@H](CC(N)=O)NC(=O)[C@@H]4CCCN4C(=O)[C@H](CCCNC(=N)N)NC(=O)[C@H](CSSC[C@H](NC(=O)[C@@H](N)CC(=O)O)C(=O)N[C@@H](CC(C)C)C(=O)NCC(=O)N[C@@H](Cc4ccccc4)C(=O)N[C@@H](CCSC)C(=O)N[C@@H](CCCNC(=N)N)C(=O)N[C@@H](CCCCN)C(=O)N2)NC(=O)[C@H](CSSC[C@@H](C(=O)N[C@@H](CCCCN)C(=O)N[C@@H](Cc2ccc(O)cc2)C(=O)N[C@H](C(=O)N[C@@H](Cc2ccccc2)C(N)=O)C(C)C)NC(=O)[C@H](Cc2c[nH]c4ccccc24)NC(=O)[C@H](CCCCN)NC(=O)[C@H](Cc2cnc[nH]2)NC(=O)[C@H]([C@@H](C)O)NC(=O)[C@H](CCCNC(=N)N)NC(=O)[C@H](CO)NC3=O)NC(=O)[C@H](CCCCN)NC(=O)[C@H](CC(=O)O)NC(=O)[C@H](CC(N)=O)NC(=O)[C@H](CCC(=O)O)NC(=O)[C@@H]2CCCN2C1=O [compound 26] (H-DCLGFMRKCIPENDKCCRPNLVCSRTHKWCKYVF-NH2; disulfide 2-17, 9-23, 16-30)
IC50 (hNav1.3; Use): 190 nM
IC50 (hNav1.5; [2]): 6.45 µM
IC50 (hNav1.7): 260 nM

CC[C@H](C)[C@@H]1NC(=O)[C@@H]2CSSC[C@@H]3NC(=O)[C@H](C(C)C)NC(=O)[C@H](CC(C)C)NC(=O)[C@H](CC(N)=O)NC(=O)[C@@H]4CCCN4C(=O)[C@H](CCCNC(=N)N)NC(=O)[C@H](CSSC[C@H](NC(=O)[C@@H](N)CC(=O)O)C(=O)N[C@@H](CC(C)C)C(=O)NCC(=O)N[C@@H](Cc4ccccc4)C(=O)N[C@@H](CCSC)C(=O)N[C@@H](CCCNC(=N)N)C(=O)N[C@@H](CCCCN)C(=O)N2)NC(=O)[C@H](CSSC[C@@H](C(=O)N[C@@H](CCCCN)C(=O)N[C@@H](Cc2ccc(O)cc2)C(=O)N[C@H](C(=O)N[C@@H](Cc2ccccc2)C(N)=O)C(C)C)NC(=O)[C@H](Cc2c[nH]c4ccccc24)NC(=O)[C@H](CCCCN)NC(=O)[C@H](Cc2cnc[nH]2)NC(=O)[C@H]([C@@H](C)O)NC(=O)[C@H](CCCNC(=N)N)NC(=O)[C@H](CO)NC3=O)NC(=O)[C@H](CCCCN)NC(=O)[C@H](CC(=O)O)NC(=O)[C@H](CCC(=O)O)NC(=O)[C@H](CC(=O)O)NC(=O)[C@@H]2CCCN2C1=O [compound 27] (H-DCLGFMRKCIPDEDKCCRPNLVCSRTHKWCKYVF-NH2; disulfide 2-17, 9-23, 16-30)
IC50 (hNav1.3; Use): 220 nM
IC50 (hNav1.5; [2]): 9.38 µM
IC50 (hNav1.7; IonWorks Quattro, Use, read-out: IWQ Use Nav1.7): 260 nM
